Molecules are shown by their SMILES. pIC50: −log10 of the molar value.

The values below come from patent US20240132480A1, “INHIBITORS OF MYCOBACTERIUM TUBERCULOSIS LIPOAMIDE DEHYDROGENASE” (Cornell University, priority 2021, published 2024).

The conditions of data set [1]: microsomes.
The target in a further data set is Mtb Lpd (Mycobacterium tuberculosis (strain ATCC 25618 / H37Rv), UniProt P9WHH9). The format is biochemical. As to conditions: read-out: LPD IC50.

As to `Cc1cc(S(=O)(=O)N(C)CC(=O)Nc2ccc3c(c2)OCCN3C)c2[nH]ncc2c1` [Example 30, 2-((N,5-dimethyl-1H-indazole)-7-sulfonamido)-N-(4-methyl-3,4-dihydro-2H-benzo[b][1,4]oxazin-7-yl)acetamide], in data set [1], the “Human Liver Microsome Stability” value was 78 µL/min/mg. Further, the negative-log IC50 (pIC50) on Mtb Lpd was 8.44.
For `Cc1cc(S(=O)(=O)N(C)CC(=O)NCc2ccccc2)c2n[nH]cc2c1` [Example 49] the same measures were 43 µL/min/mg and 7.51.
For the compound `Cc1cc(S(=O)(=O)N(C)CC(=O)Nc2ccc3c(c2)N(C)CCO3)c2[nH]ncc2c1` [Example 31], the “Human Liver Microsome Stability” value in data set [1] came to 91 µL/min/mg. The pIC50 on Mtb Lpd is 7.78.
As to `Cc1cc(S(=O)(=O)N(C)CC(=O)Nc2ccc3c(c2)OC(C)(C)CN3C)c2n[nH]cc2c1` [Example 158], in data set [1], the “Human Liver Microsome Stability” value was 46 µL/min/mg. For the same compound, the pIC50 on Mtb Lpd is 7.66.
The like results for `Cc1cc(S(=O)(=O)N(C)CC(=O)Nc2ccn(C)c(=O)c2)c2[nH]ccc2c1` [Example 23] were, in that order, 19 µL/min/mg and 7.00.
For the compound `CN(CC(=O)Nc1ccc2c(c1)OCCN2C1CCOCC1)S(=O)(=O)c1cc(C(F)F)cc2c(F)[nH]nc12` [Example 175, 2-((5-(difluoromethyl)-3-fluoro-N-methyl-1H-indazole)-7-sulfonamido)-N-(4-(tetrahydro-2H-pyran-4-yl)-3,4-dihydro-2H-benzo[b][1,4]oxazin-7-yl)acetamide], the “Human Liver Microsome Stability” value in data set [1] is 166 µL/min/mg. Moreover, the pIC50 at Mtb Lpd was 7.05.
Consider `Cc1cc(S(=O)(=O)N(C)CC(=O)Nc2ccn(C3CC3)c(=O)c2)c2[nH]ncc2c1` [Example 98], for which, in data set [1], the “Human Liver Microsome Stability” value turned out to be 28 µL/min/mg. Further, at Mtb Lpd, the pIC50 is 7.03.
For the compound `Cc1cc(S(=O)(=O)N2CC[C@@H]2C(=O)Nc2ccn(C)c(=O)c2)c2[nH]c(C#N)cc2c1` [Example 188, (R)-1-((2-cyano-5-methyl-1H-indol-7-yl)sulfonyl)-N-(1-methyl-2-oxo-1,2-dihydropyridin-4-yl)azetidine-2-carboxamide], the “Human Liver Microsome Stability” value in data set [1] is 5 µL/min/mg. Further, at Mtb Lpd, the pIC50 was 5.05.
`Cn1ccc(NC(=O)[C@@H]2CCN2S(=O)(=O)c2cc(Cl)cc3c(F)n[nH]c23)cc1=O` [Example 148]: the “Human Liver Microsome Stability” value in data set [1] is -17 µL/min/mg. Also, at Mtb Lpd, the pIC50 is 7.40.
With `CCN(CC(=O)Nc1ccc(N2CCN(C)CC2)c(Cl)c1)S(=O)(=O)c1cc(C)cc2cn[nH]c12` [Example 160], the “Human Liver Microsome Stability” value in data set [1] worked out at 107 µL/min/mg. In addition, the pIC50 at Mtb Lpd is 6.97.
`Cc1cc(S(=O)(=O)N(C)CC(=O)Nc2ccc3c(c2)OCCO3)c2[nH]ncc2c1` [Example 29]: in data set [1], the “Human Liver Microsome Stability” value worked out at 76 µL/min/mg. For the same compound, the negative logarithm of the IC50 (pIC50) at Mtb Lpd is 7.96.
For `CCn1ccc(NC(=O)CN(C)S(=O)(=O)c2cc(C)cc3cn[nH]c23)cc1=O` [Example 14, 2-((N,5-dimethyl-1H-indazole)-7-sulfonamido)-N-(1-ethyl-2-oxo-1,2-dihydropyridin-4-yl)acetamide] the same measures were -12 µL/min/mg and 7.27.
As to `Cc1cc(NC(=O)CN(C)S(=O)(=O)c2cc(C3CC3)cc3cn[nH]c23)ccc1N1CCOCC1` [Example 34], the “Human Liver Microsome Stability” value in data set [1] came to 203 µL/min/mg. Moreover, at Mtb Lpd, the pIC50 is 8.17.
Take `Cc1cc(S(=O)(=O)N(C)CC(=O)NCc2cn(-c3ccccc3)nn2)c2[nH]ncc2c1` [Example 125, 2-((N,5-dimethyl-1H-indazole)-7-sulfonamido)-N-((1-phenyl-1H-1,2,3-triazol-4-yl)methyl)acetamide]: the “Human Liver Microsome Stability” value in data set [1] is 520 µL/min/mg. In addition, on Mtb Lpd, the pIC50 was 7.32.
For `Cc1cc(S(=O)(=O)N(C)CC(=O)Nc2ccc(C3CCCCC3)c(C)c2)c2[nH]c(C)cc2c1` [Example 42], in data set [1], the “Human Liver Microsome Stability” value was determined as 23 µL/min/mg. Besides, on Mtb Lpd, the pIC50 is 6.24.
